Laboratory results published in US11072606B2, “Compositions and methods for treating diseases and conditions” (University of Pittsburgh—Of the Commonwealth System of …, priority 2014, dated 2021).
In brackets after ≈: the same amount, converted by molar mass.

What was measured:
[1] = U937 monocyte cell death, Trypan blue staining; format: cell-based; settings: human; U937 monocytes, compound for 16 hours, Trypan blue dead cells; read-out: LC50
Protocol: U937 monocytes (0.2 ml at 0.3×10^6/ml) were treated with each compound at different concentrations for 16 hours. The cells were then stained with Trypan blue to identify dead cells, and to calculate the LC50. Combined values were used to generate therapeutic indexes (TI)=LC50/IC50.

TNFα cytokine release = experiment: LPS-induced TNFα cytokine release in PBMC (ELISA); format: cell-based; settings: LPS 50 ng/ml for 16 hours concurrently with compound, TNFα by ELISA
Protocol: Peripheral blood mononuclear cells (PBMC) (0.2 ml at 0.3×10^6/ml) were treated with lipopolysaccharide (LPS) (50 ng/ml) for 16 hours concurrently with each compound tested at different concentrations. TNFα cytokine release was monitored by ELISA. These concentrations were used to calculate the IC50.

[2] = tested on: LPS induced lung inflammation; experiment: LPS induced lung inflammation in mice (FIG. 5); format: in vivo; settings: compound P.O., LPS 3 mg/kg i.t., 18 h, lavage protein, cell counts, cytokine secretion, *P<0.05 versus Vehicle
Protocol: BC-1421 was administered to mice though P.O., and mice were then immediately challenged with LPS (3 mg/kg, i.t.) for an additional 18 h. Mice were then euthanized and lungs were lavaged with saline, harvested, and then homogenized. Lavage protein, cell counts and cytokine secretion were measured in. The data represent n=4-5 mice/group, *P<0.05 versus Vehicle.

Structure (SMILES) | CC50 at 16 h [1] [µg/mL] | IC50 (TNFα cytokine release) [µg/mL] | LPS induced lung inflammation [2]
c1ccc(-c2ncc(CNCCNCc3cnc(-c4ccccc4)nc3)cn2)cc1 [Compound 208] | 10 to 100 (≈ 25.2 to 252 µM) | 2 to 20 (≈ 5.04 to 50.4 µM) | 
c1ncc(-c2ccc(CNCCNCc3ccc(-c4cncnc4)cc3)cc2)cn1 [Compound 201] | > 100 | < 2 | 
c1nnc(-c2ccc(CNCCNCc3ccc(-c4nnco4)cc3)cc2)o1 [Compound 202] | > 100 | < 2 | 
c1nc(N2CCCC2)ncc1CNCCCCNCc1cnc(N2CCCC2)nc1 [Compound 210] | 1 to 10 (≈ 2.44 to 24.4 µM) | < 2 | 
C[C@@H](CNCc1ccc(-c2ncccn2)cc1)NCc1ccc(-c2ncccn2)cc1 [Compound 204] | > 100 | < 2 | 
CC(C)(CNCc1ccc(-c2ncccn2)cc1)NCc1ccc(-c2ncccn2)cc1 [Compound 206] | > 100 | < 2 | 
CC(C)(NCc1ccc(-c2ncccn2)cc1)C(C)(C)NCc1ccc(-c2ncccn2)cc1 [Compound 207] | > 100 | 2 to 20 (≈ 4.42 to 44.2 µM) | 
c1ncn(-c2ccc(CNCCNCc3ccc(-n4cncn4)cc3)cc2)n1 [Compound 203] | > 100 | 2 to 20 (≈ 5.34 to 53.4 µM) | 
c1ccc(-c2ncc(CNCCNCc3cnc(-c4ccccn4)nc3)cn2)nc1 [Compound 209] | 10 to 100 (≈ 25.1 to 251 µM) | 2 to 20 (≈ 5.02 to 50.2 µM) | 
Fc1cc(CNCCNCc2ccc(-c3ncccn3)c(F)c2)ccc1-c1ncccn1 [BC-1421, N^1,N^2-bis(3-fluoro-4-(pyrimidin-2-yl)benzyl)ethane-1,2-diamine] |  |  | reduces LPS induced lung inflammation
C[C@H](CNCc1ccc(-c2ncccn2)cc1)NCc1ccc(-c2ncccn2)cc1 [Compound 205] | > 100 | < 2 | 
